# Reference: paper PMC6337261, “Short Peptides with Uncleavable Peptide Bond Mimetics as Photoactivatable Caspase-3 Inhibitors” (Molecules, 2019)
# How the values were obtained:
# Format in all cases: biochemical
# [1] = test system: caspase-3; test: Competitive ABPP with bisulfite aldehyde quenching; settings: 10 μM, irradiated 10 min, reacted with 10 mM NaHSO3 for 20 min, then 30 min with caspase-3, fluorescent ABP read-out
# Description: The presence of a ψ(CH2NH) peptide with benzophenone or UV irradiation alone was not sufficient for inhibition, but all needed to be present to block the caspase-3 active site (Figure 3G,H). We hypothesized that the active species is a peptide aldehyde, formed by oxidation of the ψ(CH2NH) moiety (see also discussion in Section 3). To support this hypothesis, we performed an experiment in which this aldehyde was trapped by sodium bisulfite, forming a sodium bisulfite adduct.
# Compounds were incubated with or without irradiation (10 min) in PBS with or without 10 mM NaHSO3 and incubated for another 20 min before addition to caspase-3. After 30 min, ABP 13 was added (final concentration 1 μM) to label residual caspase activity. The samples were incubated for 30 min at room temperature, after which 1/3rd volume of 4× Laemmli buffer was added. Samples were processed in the same way as under Section 4.4.1.
# (§1) Figure 3 Non-covalent inhibition of caspase-3 by compounds 9 and 10. (A) Fluorescent labeling of caspase-3 by ψ(CH2NH) peptides 9–10 and triazolo peptides 11–12. […] (B) Deconvoluted ESI-MS of caspase-3. (C) Deconvoluted ESI-MS of caspase-3 after incubation with covalent activity-based probe (ABP) 13. Note that the active site, located on the large subunit, is modified. (D) Deconvoluted ESI-MS of caspase-3 after irradiation in the presence of benzophenone ψ(CH2NH) 10a, not resulting in covalent modification. […] (F) Structures of ψ(CH2NH) peptides 14 and 15 without photocrosslinker. (G) UV irradiation of ψ(CH2NH) peptides 14 and 15 in the presence of benzophenone leads to inhibition of caspase-3, as monitored by competitive ABPP. […] Ac-DEVD-aldehyde (100 nM) was used as a control compound, whereas 9a and 10a (10 μM) were irradiated for 10 min and reacted with sodium bisulfite for an additional 20 min before 30 min incubation with caspase-3 and read-out with a fluorescent caspase ABP.
# [2] = test system: caspase-3; test: Fluorogenic substrate (Ac-DEVD-AMC) cleavage assay; settings: 10 μM compound, 2 nM caspase-3, 50 μM Ac-DEVD-AMC, HEPES pH 7.4 with 10 mM DTT, n = 2
# Method: (§2) To check whether our probes function as inhibitors, competitive ABPP [28] was performed. Recombinant caspase-3 was incubated with probes 9a–10c, 11a and 12a with or without irradiation at 365 nm, followed by labeling of residually active caspase-3 with the fluorescent, caspase-directed activity-based probe (ABP) SV149, a tetramethylrhodamine derivative of KMB-01 [29]. Caspase activity itself was not affected by UV irradiation, as shown by bands of equal intensity with and without UV light (Figure 2A). […] To confirm inhibition, we also performed substrate cleavage assays using the fluorogenic aminomethyl coumarin substrate Ac-DEVD-AMC. […] Inhibition of active caspases could also be achieved in an apoptotic cell lysate (Figure 2D).
# Purified caspase-3 (2 nM) was pre-activated by incubating in caspase reaction buffer (20 mm HEPES pH 7.4, 100 mM NaCl, 1 mM EDTA, 10% sucrose (w/v), 0.1% CHAPS (w/v), 10 mM DTT) for 15 min at 37 °C. Inhibitors 9a, 10a, and DMSO (control) were incubated with the caspase-3 at 10 μM final concentration. One set was irradiated with a handheld UV lamp at 365 nm for 30 min at room temperature whereas the control set was not irradiated. After 30 min, 99 μL of the sample was added to 1 μL of Ac-DEVD-AMC fluorogenic substrate (5 mM in dmso; 50 μM final concentration) in a black 96 well plate. The fluorescence intensity was read using an iD3 SpectraMax platereader (Molecular Devices; excitation wavelength: 340 nm; emission wavelength: 475 nm). The experiment was performed in duplicate. Activity was determined as the slope from the linear part of the progress curve by using GraphPad Prism.
# (§3) Figure 2 Inhibition of caspase-3. (A) Competitive activity-based protein profiling (ABPP) experiments using ψ(CH2NH) or triazolo peptide derivatives 9–12 with or without irradiation. Compounds 9a–12a were used at 10 μM final concentration, 9b, 9c, 10b and 10c at 100 μM. Inh = caspase inhibitor biotin-DEVD-AOMK, used at 100 nM concentration. (B) Representative progress curves of fluorescence produced by Ac-DEVD-AMC (50 μM) cleavage by caspase-3, irradiated with or without 10 μM of the indicated compounds. (C) Bar graph of residual caspase-3 activity of replicate experiments (n = 2) of those in (B). (D) Inhibition of executioner’s caspase-3 and -7 in lysates of HEK293 cells, treated with cytochrome c/dATP to induce apoptosis.
# [3] = test system: caspase-3; test: Gel-based competitive ABPP on recombinant caspase-3; settings: 10 μM compound, PBS with 1 mM DTT, fluorescent ABP read-out on gel
# Method: as §2
# (§4) Caspase-3, produced in E. coli and purified as described before, was reacted in PBS with 1 mM DTT. Samples were combined with the indicated probe and irradiated with a handheld UV lamp at 365 nm for 30 min at room temperature. For competition experiments with ‘pre-activation,’ the indicated probes were irradiated for 30 min prior to addition to caspase-3, and incubated for an additional 30 min. Next, ABP 13 was added (final concentration 1 μM) to label residual caspase-3 activity. The samples were incubated for 30 min at room temperature, after which 1/3rd volume of 4× Laemmli buffer was added. Samples were heated at 95 °C for 2 min and resolved by 15% SDS-PAGE. Gels were scanned using a Typhoon Trio+ fluorescent scanner with excitation at 532 nm and an emission filter of 580 nm. Gel images were processed with ImageJ (background subtraction with rolling ball radius of 50 pixels and automated contrast adjustment).
# as §3
# [4] = test system: caspase-3; test: Competitive ABPP with UV pre-activation of the probes; settings: compound irradiated at 365 nm for 30 min, light source removed, then added to caspase-3 for 30 min; fluorescent ABP read-out
# Method: Compounds were irradiated with UV light of 365 nm for 30 min and after removal of the light source added to caspase-3. Residual caspase activity was measured by using a fluorescent caspase ABP as in our previous experiments above.
# as §4, §1
# [5] = irradiated at 365 nm for 30 min at room temperature
substance,measurement,setting,value
Hexynoyl-Asp-Glu-Val-Aspψ(CH2NH)-Ala-Bpa-NH2 [10a],Inhibition of caspase-3 by irradiated sample exposed to sodium bisulfite,[1],lose their inhibitory capacity
same,Inhibition of Ac-DEVD-AMC cleavage by caspase-3,[2]; [5],complete blockage of substrate processing
same,Inhibition of Ac-DEVD-AMC cleavage by caspase-3,[2]; not irradiated,little to no inhibition
same,Inhibition of caspase-3 activity (caspase ABP labeling),[3]; [5],complete inhibition
same,Inhibition of caspase-3 activity (caspase ABP labeling),[3]; non-irradiated,no decrease in caspase ABP labeling
same,Inhibition of caspase-3 after UV pre-activation of compound,[4],still inhibited
